# Patent US20250345295A1, “LMK235 COMPOSITIONS AND METHODS” (UNM Rainforest Innovations, priority 2024, published 2025)
# Tested on: differentially expressed genes in TG
# Experiment: RNAseq gene expression profiling of TG
# Type: in vivo, mouse
# Protocol: Gene expression profiling was performed on TG from mice with/without nerve injury during the acute phase (three weeks post injury) in TIC mice and after transition to chronic pain (10 weeks post injury) in FRICT-ION mice by Quick Biology Inc. (Monrovia, CA).
# Total RNA from ipsilateral TG was isolated using the Rneasy Mini Kit (Qiagen, Valencia, CA). Gene expression profiling and analysis with RNA was done by Quick Biology Inc. (Monrovia, CA). RNAseq library preparation was performed by Quick Biology Inc. (Monrovia, CA), sequencing was performed using an Illumina HiSeq 4000 at 40 million reads per sample. The reads were first mapped to the latest UCSC transcript set using Bowtie2 version 2.1.0 and the gene expression level was estimated using RSEM v1.2.15. Differentially expressed genes were identified using the edgeR program. Genes showing altered expression with p<0.05 were considered differentially expressed.
# [1] = LMK235-Treated FRICT-ION Vs Naive
# [2] = LMK235-Treated FRICT-ION Vs Untreated FRICT-ION
# [3] = TG RNAseq, FRICT-ION mice treated with LMK235 vs naive, week 10
# [4] = TG RNAseq, LMK235-treated vs untreated FRICT-ION mice
structure (smiles),measurement,setting,value
"Cc1cc(C)cc(C(=O)NOCCCCCC(=O)NO)c1 [LMK235, N-[[6-(Hydroxyamino)-6-oxohexyl]oxy]-3,5-dimethyl-benzamide]",Fold-change Arfgef2,[1],1.02
same,Fold-change Astn2,[1],1.04
same,Fold-change Bmp2,[1],1.11
same,Fold-change Bmp3,[1],−1.23
same,Fold-change Bmp4,[1],1.18
same,Fold-change Bmp5,[1],1.85
same,Fold-change Cacna1a,[1],−1.06
same,Fold-change Cacna1g,[1],−1.00
same,Fold-change Cacna1i,[1],−1.14
same,Fold-change Cacna1h,[1],−1.11
same,Fold-change Cacna1d,[1],−1.03
same,Fold-change Cacnb1,[1],−1.02
same,Fold-change Clcn1,[1],−1.33
same,Fold-change Clcn2,[1],−1.11
same,Fold-change Clic5,[1],−1.08
same,Fold-change Eef2,[1],−1.05
same,Fold-change Gabra5,[1],1.02
same,Fold-change Gabra6,[1],1.18
same,Fold-change Gabre,[1],−1.22
same,Fold-change Gabrg1,[1],1.26
same,Fold-change Jakmip1,[1],1.02
same,Fold-change Kcna5,[1],−1.06
same,Fold-change Kcnc3,[1],−1.05
same,Fold-change Kcnd2,[1],1.09
same,Fold-change Kcnh2,[1],−1.06
same,Fold-change Kcnh7,[1],1.03
same,Fold-change Kcnj6,[1],−1.10
same,Fold-change Kcnk1,[1],−1.02
same,Fold-change Kcns2,[1],1.12
same,Fold-change Kcnv1,[1],1.26
same,Fold-change Kif1b,[1],1.01
same,Fold-change Maoa,[1],1.08
same,Fold-change Mapk3,[1],−1.02
same,Fold-change Mpz,[1],1.07
same,Fold-change Nacc2,[1],−1.05
same,Fold-change Nav3,[1],1.12
same,Fold-change Ncald,[1],1.05
same,Fold-change Ndnf,[1],1.31
same,Fold-change Net1,[1],−1.11
same,Fold-change Neurod4,[1],−1.13
same,Fold-change Nf2,[1],−1.02
same,Fold-change Nfasc,[1],−1.09
same,Fold-change Ngef,[1],−1.06
same,Fold-change Nkain2,[1],1.05
same,Fold-change Nova1,[1],1.04
same,Fold-change Nras,[1],−1.00
same,Fold-change Nrep,[1],1.04
same,Fold-change Nrg2,[1],1.04
same,Fold-change Nrg3,[1],1.09
same,Fold-change Nrp2,[1],1.07
same,Fold-change Ntrk1,[1],−1.09
same,Fold-change Nts,[1],1.18
same,Fold-change Plcl1,[1],1.12
same,Fold-change Scn2a1,[1],1.10
same,Fold-change Scn3a,[1],1.11
same,Fold-change Scn5a,[1],1.23
same,Fold-change Scn7a,[1],1.07
same,Fold-change Scn8a,[1],−1.07
same,Fold-change Scn9a,[1],1.01
same,Fold-change Slc6a4,[1],−1.11
same,Fold-change Trak1,[1],−1.05
same,Fold-change Trpc6,[1],−1.08
same,Fold-change Trpm2,[1],−1.10
same,Fold-change Trpm3,[1],1.12
same,Fold-change Trpm4,[1],−1.14
same,Fold-change Trpm7,[1],1.10
same,Fold-change Trps1,[1],1.14
same,Fold-change Trpv4,[1],2.12
same,Fold-change Trpv6,[1],−1.07
same,Fold-change Unc80,[1],1.07
same,Fold-change Arfgef2,[2],1.01
same,Fold-change Astn2,[2],1.0
same,Fold-change Bmp2,[2],−1.02
same,Fold-change Bmp3,[2],−2.70
same,Fold-change Bmp4,[2],1.05
same,Fold-change Bmp5,[2],−1.01
same,Fold-change Cacna1a,[2],−1.16
same,Fold-change Cacna1g,[2],−1.43
same,Fold-change Cacna1i,[2],−1.39
same,Fold-change Cacna1h,[2],−1.49
same,Fold-change Cacna1d,[2],−1.04
same,Fold-change Cacnb1,[2],−1.13
same,Fold-change Clcn1,[2],−1.05
same,Fold-change Clcn2,[2],1.01
same,Fold-change Clic5,[2],−1.05
same,Fold-change Eef2,[2],1.01
same,Fold-change Gabra5,[2],−1.23
same,Fold-change Gabra6,[2],2.08
same,Fold-change Gabre,[2],1.10
same,Fold-change Gabrg1,[2],1.14
same,Fold-change Jakmip1,[2],−1.10
same,Fold-change Kcna5,[2],−1.41
same,Fold-change Kcnc3,[2],−1.04
same,Fold-change Kcnd2,[2],−1.00
same,Fold-change Kcnh2,[2],−1.04
same,Fold-change Kcnh7,[2],−1.19
same,Fold-change Kcnj6,[2],−1.38
same,Fold-change Kcnk1,[2],1.05
same,Fold-change Kcns2,[2],−1.25
same,Fold-change Kcnv1,[2],1.09
same,Fold-change Kif1b,[2],1.01
same,Fold-change Maoa,[2],1.14
same,Fold-change Mapk3,[2],−1.00
same,Fold-change Mpz,[2],−1.05
same,Fold-change Nacc2,[2],−1.00
same,Fold-change Nav3,[2],−1.19
same,Fold-change Ncald,[2],1.03
same,Fold-change Ndnf,[2],1.06
same,Fold-change Net1,[2],1.12
same,Fold-change Neurod4,[2],1.57
same,Fold-change Nf2,[2],1.04
same,Fold-change Nfasc,[2],−1.02
same,Fold-change Ngef,[2],−1.34
same,Fold-change Nkain2,[2],−1.14
same,Fold-change Nova1,[2],1.04
same,Fold-change Nras,[2],−1.03
same,Fold-change Nrep,[2],1.01
same,Fold-change Nrg2,[2],1.10
same,Fold-change Nrg3,[2],−1.00
same,Fold-change Nrp2,[2],1.07
same,Fold-change Ntrk1,[2],1.80
same,Fold-change Nts,[2],−1.74
same,Fold-change Plcl1,[2],1.13
same,Fold-change Scn2a1,[2],−1.04
same,Fold-change Scn3a,[2],−1.01
same,Fold-change Scn5a,[2],1.01
same,Fold-change Scn7a,[2],−1.07
same,Fold-change Scn8a,[2],1.05
same,Fold-change Scn9a,[2],1.29
same,Fold-change Slc6a4,[2],4.38
same,Fold-change Trak1,[2],−1.01
same,Fold-change Trpc6,[2],1.08
same,Fold-change Trpm2,[2],−1.02
same,Fold-change Trpm3,[2],1.19
same,Fold-change Trpm4,[2],1.05
same,Fold-change Trpm7,[2],1.06
same,Fold-change Trps1,[2],1.03
same,Fold-change Trpv4,[2],1.21
same,Fold-change Trpv6,[2],−1.19
same,Fold-change Unc80,[2],1.10
same,Fold change S100a9,"TG RNAseq, FRICT-ION + LMK235 VS FRICT-ION",−2.74
same,C1q14 RNA level vs naïve,[3],not significantly different from naïve mice
same,Crhbp RNA level vs naïve,[3],not significantly different form naïve controls
same,P2rx4 RNA level vs naïve,[3],not different from naïves
same,Slfn4 RNA level vs naïve,[3],not different from naïve controls
same,P2rx7 foldchanges,"TG RNAseq, LMK235-treated and untreated FRICT-ION mice",minimal and insignificant foldchanges
same,"Bmp2 downregulated, fold",[4],1.02 fold
same,"Bmp3 downregulated, fold",[4],2.70 fold
same,Bmp4 expression change,[4],not affected
same,"Bmp5 downregulated, fold",[4],1.01 fold
same,"Cacna1a downregulated, fold",[4],1.16 fold
same,"Cacna1 downregulated, fold",[4],1.39 fold
same,"Cacna1g downregulated, fold",[4],1.43 fold
same,"Cacna1h downregulated, fold",[4],1.49 fold
same,"Cacna1d downregulated, fold",[4],1.04 fold
same,"CacnbI downregulated, fold",[4],1.13 fold
same,"Clcn2 upregulated, fold",[4],1.01 fold
same,"Kcna5 downregulated, fold",[4],1.41 fold
same,"Kcnd2 downregulated, fold",[4],1.00 fold
same,"Kcne2 reduced, fold (insignificant)",[4],1.56 fold
same,"Kcnh7 downregulated, fold",[4],1.19 fold
same,"Kcnj6 downregulated, fold",[4],1.38 fold
same,"Kcnk1 upregulated, fold",[4],1.05 fold
same,"Kcns2 downregulated, fold",[4],1.25 fold
same,"Maoa upregulated, fold",[4],1.14 fold
same,"Mpz downregulated, fold",[4],1.05 fold
